The record followed here is patent US3995059A, “Pharmaceutical compositions containing fatty acid amide derivatives” (Sumitomo Chemical Company, Limited, priority 1966, dated 1976).

Type in all cases: in vivo
One experiment has as its system Serum cholesterol. The experiment is described as follows: Serum cholesterol of rabbits fed a cholesterol rich diet. To be noted: 200 mg/day with cholesterol rich diet.
For experiment [1], the system named is total cholesterol value in the blood serum. The experiment is described as follows: Total cholesterol in blood serum of mice fed a diet enriched with cholesterol and bile acids (Table 1). To be noted: 0.2% in diet, oral, 8 to 12 days. How it is done:
The effectiveness of the compounds was tested by using mice fed on a specific diet which was enriched with cholesterol and bile acids. […] The amide compound as well was mixed with the specific diet in an amount of 0.2%, and continuously administered orally for 8 to 12 days. Then the total cholesterol value in the blood serum of the animals was evaluated.

Another experiment relates to liver cholesterol. Kind of experiment: Liver cholesterol (deposition of cholesterol and fat in the liver) of mice fed a cholesterol-rich diet (Table 1). The conditions noted are these: 0.2% in diet, oral, 8 to 12 days.
The subject of another experiment is Rabbit serum cholesterol. Kind of experiment: Rabbit serum cholesterol lowering ratio after 9 weeks. To be noted: 100 mg/kg/day; control 0%.
The mark [2] stands for this setting: experiment [III], control not given.

The structures appear in SMILES notation.

For `CCCCC/C=C\C/C=C\CCCCCCCC(=O)N(C1CCCCC1)C1CCCCC1` [N,N-dicyclohexyl linoleamide], the Serum cholesterol with Serum cholesterol (2 weeks, control 250) was 250 mg. %; in the experiment on Serum cholesterol (4 weeks, control 563) it was 120 mg. %; in the experiment with Serum cholesterol (6 weeks, control 890), 62 mg. %; with Serum cholesterol (8 weeks, control 1150), 62 mg. %; with Serum cholesterol (10 weeks, control 1750), 65 mg. %.
As to `CCCCC/C=C\C/C=C\CCCCCCCC(=O)NC(CC)c1ccc(C)cc1` (stereo not drawn) [drawing 21], the Serum cholesterol in experiment [1] (experiment [III], control 471) is on record as 242 mg %. In the experiment on liver cholesterol (setting [2]), this molecule gave a Liver cholesterol of 1065 mg/100 g.
In the same order, the values of `CCCCC/C=C\C/C=C\CCCCCCCC(=O)NC(C)c1ccc(C)cc1` (stereo not drawn) [drawing 22] are 237 mg % and 1047 mg/100 g.
For `CCCCC/C=C\C/C=C\CCCCCCCC(=O)NC(C)c1ccc(C)cc1` (stereo not drawn) [drawing 23], the Serum cholesterol in experiment [1] (experiment [IV], control 595) was found to be 240 mg %. The molecule further displayed a Liver cholesterol in the experiment on liver cholesterol (experiment [IV], control 3145) of 828 mg/100 g.
The molecule `CCCCC/C=C\C/C=C\CCCCCCCC(=O)NC(CC)c1ccc(C)cc1` (stereo not drawn) [drawing 24] gave a Serum cholesterol in experiment [1] (experiment [IV], control 595) of 321 mg %. In the experiment with liver cholesterol (experiment [IV], control 3145), this molecule registered a Liver cholesterol of 908 mg/100 g.
For the molecule `CCCCC/C=C\C/C=C\CCCCCCCC(=O)NC(C)c1ccc(Cl)cc1` (stereo not drawn) [drawing 25], the Serum cholesterol in experiment [1] (experiment [IV], control 595) came out at 217 mg %. For the same molecule, the Liver cholesterol in the experiment on liver cholesterol (experiment [IV], control 3145) was 826 mg/100 g.
In the same order, the values of `CCCCC/C=C\C/C=C\CCCCCCCC(=O)NC(C)c1ccc(Cl)c(Cl)c1` (stereo not drawn) [drawing 26] are 251 mg % and 1000 mg/100 g.
On to `CC/C=C\C/C=C\C/C=C\CCCCCCCC(=O)NC(C)c1ccccc1C` (stereo not drawn) [drawing 29], for which, in experiment [1] (experiment [IV], control 595), the Serum cholesterol amounted to 222 mg %. Moreover, the Liver cholesterol in the experiment with liver cholesterol (experiment [IV], control 3145) is 913 mg/100 g.
In experiment [1] (experiment [V], control 372), `CC/C=C\C/C=C\C/C=C\CCCCCCCC(=O)NC(Cc1ccccc1)c1ccccc1` (stereo not drawn) [drawing 32] yielded a Serum cholesterol of 238 mg %. In the experiment on liver cholesterol (experiment [V], control 2640), this molecule showed a Liver cholesterol of 729 mg/100 g.
In the same order, the values of `CCCCCCCC/C=C\CCCCCCCC(=O)NC(Cc1ccccc1)c1ccccc1` (stereo not drawn) [drawing 33] are 245 mg % and 831 mg/100 g.
As to `CCCCC/C=C\C/C=C\CCCCCCCC(=O)NC(C)c1ccc([N+](=O)[O-])cc1` (stereo not drawn) [drawing 44], in experiment [1] (experiment [VIII], control 472), the Serum cholesterol is on record as 340 mg %. For the same molecule, the Liver cholesterol in the experiment with liver cholesterol (experiment [VIII], control 2652) is 1603 mg/100 g.
Take `CCCCC/C=C\C/C=C\CCCCCCCC(=O)NC12CC3CC(CC(C3)C1)C2` [drawing 53]: in experiment [1] (experiment [IX], control 336), the Serum cholesterol came out at 288 mg %. This molecule also displayed a Liver cholesterol in the experiment on liver cholesterol (experiment [IX], control 2200) of 721 mg/100 g.
In experiment [1] (experiment [X], control 554), `CCCCC/C=C\C/C=C\CCCCCCCC(=O)NC(C)c1ccc(C)cc1` (stereo not drawn) [drawing 61] gave a Serum cholesterol of 228 mg %. In the experiment on liver cholesterol (experiment [X], control 3293), the Liver cholesterol is 820 mg/100 g.
Molecule `CCCCCCCC/C=C\CCCCCCCC(=O)NC(C)c1ccc(CC)cc1` (stereo not drawn) [drawing 63] came in with a Serum cholesterol in experiment [1] (experiment [X], control 554) of 398 mg %. Moreover, the Liver cholesterol in the experiment with liver cholesterol (experiment [X], control 3293) was 1210 mg/100 g.
As for `CCCCCCCC/C=C\CCCCCCCC(=O)NC(C)c1ccc(CC)cc1` (stereo not drawn) [drawing 64], in experiment [1] (experiment [X], control 554), the Serum cholesterol is reported as 254 mg %. In addition, the Liver cholesterol with liver cholesterol (experiment [X], control 3293) was found to be 841 mg/100 g.
The corresponding values for `CC/C=C\C/C=C\C/C=C\CCCCCCCC(=O)NC(C)c1ccc(C)cc1` (stereo not drawn) [drawing 66] are 249 mg % and 1000 mg/100 g.
`CC/C=C\C/C=C\C/C=C\CCCCCCCC(=O)NC(C)c1ccc(C)cc1` (stereo not drawn) [drawing 67] gave a Serum cholesterol in experiment [1] (experiment [X], control 554) of 295 mg %. In addition, in the experiment on liver cholesterol (experiment [X], control 3293), the Liver cholesterol amounted to 1015 mg/100 g.
Take `CCCCC/C=C\C/C=C\CCCCCCCC(=O)NC(C)c1ccc(Cl)cc1` (stereo not drawn) [drawing 72]: the Serum cholesterol in experiment [1] (experiment [XI], control 595) is reported as 230 mg %. Also, the Liver cholesterol with liver cholesterol (experiment [XI], control 3451) was 845 mg/100 g.
Molecule `CCCCC/C=C\C/C=C\CCCCCCCC(=O)NC(C)c1ccc([N+](=O)[O-])cc1` (stereo not drawn) [drawing 73] had a Serum cholesterol in experiment [1] (experiment [XI], control 595) of 275 mg %. The same molecule had a Liver cholesterol in the experiment on liver cholesterol (experiment [XI], control 3451) of 1011 mg/100 g.
On to `CCCCC/C=C\C/C=C\CCCCCCCC(=O)NC(C)c1ccc([N+](=O)[O-])cc1` (stereo not drawn) [drawing 74], for which, in experiment [1] (experiment [XI], control 595), the Serum cholesterol came out at 315 mg %. Also, in the experiment with liver cholesterol (experiment [XI], control 3451), the Liver cholesterol is listed as 1098 mg/100 g.
On to `CCCCCCCC/C=C\CCCCCCCC(=O)NC(C)c1ccc(Br)cc1` (stereo not drawn) [drawing 78], for which the Serum cholesterol in experiment [1] (experiment [XI], control 595) is 253 mg %. The Liver cholesterol in the experiment with liver cholesterol (experiment [XI], control 3451) is on record as 921 mg/100 g.
For `CCCCCCCC/C=C\CCCCCCCC(=O)NC(C)c1ccc(Br)cc1` (stereo not drawn) [drawing 79], the Serum cholesterol in experiment [1] (experiment [XI], control 595) is recorded as 277 mg %. This molecule also showed a Liver cholesterol in the experiment with liver cholesterol (experiment [XI], control 3451) of 1009 mg/100 g.
In experiment [1] (experiment [XI], control 595), `CCCCCCCC/C=C\CCCCCCCC(=O)NC(CC)c1cccc([N+](=O)[O-])c1` (stereo not drawn) [drawing 81] displayed a Serum cholesterol of 289 mg %. Besides, the Liver cholesterol with liver cholesterol (experiment [XI], control 3451) was 906 mg/100 g.
`CCCCCCCC/C=C\CCCCCCCC(=O)NC(CC)c1cccc([N+](=O)[O-])c1` (stereo not drawn) [drawing 82]: the Serum cholesterol in experiment [1] (experiment [XI], control 595) came to 315 mg %. Moreover, the Liver cholesterol in the experiment on liver cholesterol (experiment [XI], control 3451) came to 1125 mg/100 g.
In turn, `CCCCCCCC/C=C\CCCCCCCC(=O)NC(C)c1ccc(OC)cc1` (stereo not drawn) [drawing 84] yielded a Serum cholesterol in experiment [1] (experiment [XI], control 595) of 306 mg %. The molecule further returned a Liver cholesterol in the experiment with liver cholesterol (experiment [XI], control 3451) of 1069 mg/100 g.
In experiment [1] (experiment [XI], control 595), `CCCCCCCC/C=C\CCCCCCCC(=O)NC(C)c1ccc(OC)cc1` (stereo not drawn) [drawing 85] registered a Serum cholesterol of 318 mg %. Besides, in the experiment with liver cholesterol (experiment [XI], control 3451), the Liver cholesterol was 1115 mg/100 g.
In the same order, the values of `CC/C=C\C/C=C\C/C=C\CCCCCCCC(=O)NC(C)c1cccc(Cl)c1` (stereo not drawn) [drawing 95] are 275 mg % and 995 mg/100 g.
Turning to `CC/C=C\C/C=C\C/C=C\CCCCCCCC(=O)NC(C)c1cccc(Cl)c1` (stereo not drawn) [drawing 96], the Serum cholesterol in experiment [1] (experiment [XI], control 595) turned out to be 300 mg %. In the experiment with liver cholesterol (experiment [XI], control 3451), this molecule had a Liver cholesterol of 1029 mg/100 g.
Molecule `CC/C=C\C/C=C\C/C=C\CCCCCCCC(=O)NC(CC)c1ccc([N+](=O)[O-])cc1` (stereo not drawn) [drawing 97] showed a Serum cholesterol in experiment [1] (experiment [XI], control 595) of 245 mg %. In the experiment on liver cholesterol (experiment [XI], control 3451), the Liver cholesterol came to 1004 mg/100 g.
In turn, `CC/C=C\C/C=C\C/C=C\CCCCCCCC(=O)NC(CC)c1ccc([N+](=O)[O-])cc1` (stereo not drawn) [drawing 98] gave a Serum cholesterol in experiment [1] (experiment [XI], control 595) of 365 mg %. Also, the Liver cholesterol in the experiment with liver cholesterol (experiment [XI], control 3451) came out at 1325 mg/100 g.
In experiment [1] (experiment [XI], control 595), `CC/C=C\C/C=C\C/C=C\CCCCCCCC(=O)NC(Cc1ccccc1)c1ccccc1` (stereo not drawn) [drawing 99] showed a Serum cholesterol of 240 mg %. The Liver cholesterol in the experiment with liver cholesterol (experiment [XI], control 3451) is on record as 623 mg/100 g.
Turning to `CC/C=C\C/C=C\C/C=C\CCCCCCCC(=O)NC(Cc1ccccc1)c1ccccc1` (stereo not drawn) [drawing 100], in experiment [1] (experiment [XI], control 595), the Serum cholesterol amounted to 275 mg %. This molecule had a Liver cholesterol in the experiment on liver cholesterol (experiment [XI], control 3451) of 1632 mg/100 g.
The corresponding values for `CC/C=C\C/C=C\C/C=C\CCCCCCCC(=O)NC(CC)c1ccc(OC)cc1` (stereo not drawn) [drawing 102] are 280 mg % and 870 mg/100 g.
Molecule `CC/C=C\C/C=C\C/C=C\CCCCCCCC(=O)NC(CC)c1ccc(OC)cc1` (stereo not drawn) [drawing 103] gave a Serum cholesterol in experiment [1] (experiment [XI], control 595) of 339 mg %. This molecule gave a Liver cholesterol with liver cholesterol (experiment [XI], control 3451) of 1620 mg/100 g.
Regarding `CCCCC/C=C\C/C=C\CCCCCCCC(=O)NC(C)c1ccccc1` (stereo not drawn) [drawing 144], the Serum cholesterol is recorded as 250 mg. % in the experiment on Serum cholesterol (2 weeks, control 250); 130 mg. % in the experiment on Serum cholesterol (4 weeks, control 563); 65 mg. % with Serum cholesterol (6 weeks, control 890); 60 mg. % with Serum cholesterol (8 weeks, control 1150); 52 mg. % in the experiment on Serum cholesterol (10 weeks, control 1750).
Take `CCCCC/C=C\C/C=C\CCCCCCCC(=O)NC(C)c1ccc(C)cc1` (stereo not drawn) [drawing 145]: in the experiment with Rabbit serum cholesterol, the “Rabbit serum cholesterol Towering ratio (after 9 weeks)” value is listed as 60.1%.
Take `CCCCC/C=C\C/C=C\CCCCCCCC(=O)NC(CC)c1ccc(C)cc1` (stereo not drawn) [drawing 146]: in the experiment with Rabbit serum cholesterol, the “Rabbit serum cholesterol Towering ratio (after 9 weeks)” value came out at 59.2%.
`CCCCC/C=C\C/C=C\CCCCCCCC(=O)NC(C)c1ccc(Cl)cc1` (stereo not drawn) [drawing 147]: the “Rabbit serum cholesterol Towering ratio (after 9 weeks)” value in the experiment on Rabbit serum cholesterol was 80.1%.
Regarding `CCCCC/C=C\C/C=C\CCCCCCCC(=O)NC(C)c1ccc(Cl)c(Cl)c1` (stereo not drawn) [drawing 148], the “Rabbit serum cholesterol Towering ratio (after 9 weeks)” value in the experiment with Rabbit serum cholesterol turned out to be 61.5%.
With `CC/C=C\C/C=C\C/C=C\CCCCCCCC(=O)NC(C)c1ccccc1C` (stereo not drawn) [drawing 151], the “Rabbit serum cholesterol Towering ratio (after 9 weeks)” value in the experiment with Rabbit serum cholesterol was determined as 54.5%.
`CC(C)CCCCCCCCCCCCCCC(=O)NC(Cc1ccccc1)c1ccccc1` (stereo not drawn) [iso-C17 H35 CO]: in experiment [1] (experiment [V], control 372), the Serum cholesterol came out at 221 mg %. Moreover, in the experiment with liver cholesterol (experiment [V], control 2640), the Liver cholesterol was 609 mg/100 g.
The corresponding values for `CCCCCC=CCC=CCCCCCCCC(=O)NC(Cc1ccccc1)c1ccccc1` (stereo not drawn) [l- C17 H31 CO] are 208 mg % and 623 mg/100 g.
In experiment [1] (experiment [V], control 372), `CCCCCCCC/C=C\CCCCCCCC(=O)NC(Cc1ccccc1)c1ccccc1` (stereo not drawn) [l- drawing 33] came in with a Serum cholesterol of 263 mg %. In the experiment on liver cholesterol (experiment [V], control 2640), this molecule showed a Liver cholesterol of 888 mg/100 g.
